Experimental findings from publication PMC8607231, “Generation of KS-133 as a Novel Bicyclic Peptide with a Potent and Selective VIPR2 Antagonist Activity that Counteracts Cognitive Decline in a Mouse Model of Psychiatric Disorders” (Frontiers in Pharmacology, 2021) are described below.

Where a SMILES comes first, the peptide text is derived from it. Bridges are numbered along the chain shown (N, C = ends).

The series in a line: Peptide stability in rat plasma (RP-HPLC). In kind it is in vitro ADME. The protocol: Each peptide (10 mM, 1 μl) was incubated with rat plasma (20 μl) prepared in-house. Immediately after mixing with plasma and after 24 h of incubation at 37°C, 80% acetonitrile (200 μl) was added to extract VIpep-3 and acetonitrile (200 μl) was added to extract KS-132, KS-133(monocyclic), and KS-133. The mixture was stored for 10 min on ice and then centrifuged at 20,000 × g for 10 min at 4°C. The supernatant was recovered and directly applied to RP-HPLC to determine the remaining amount of unmodified peptides in the sample.
The stability of peptides was evaluated in rat plasma. A peptide was incubated in rat plasma at 37°C for 0 and 24 h and the remaining amount of peptide was determined by RP-HPLC. By comparison with the peak area of the peptide, the remaining amount of the peptide after plasma incubation was estimated. […] KS-133(monocyclic) may form a pseudo bicyclic structure by ionic bond interaction between side chains of Lys and Asp.

Where [1] appears, read: rat plasma, immediately after mixing.

Turning to `CC[C@H](C)[C@H](NC(=O)[C@H](CC(C)C)NC(=O)[C@@H]1CC(=O)NCCCC[C@@H]2NC(=O)[C@@H]3CCCN3C(=O)[C@H](CC(C)C)NC(=O)[C@H](Cc3ccc(O)cc3)NC(=O)[C@@H]3CCCN3C(=O)[C@@H]3CCCN3C(=O)[C@@H](NC(C)=O)CSSC[C@H](NC(=O)[C@H](CC(C)C)NC(=O)[C@H](Cc3ccc(O)cc3)NC2=O)C(=O)N1)C(N)=O` [KS-133, Ac-c[Cys-Pro-Pro-Tyr-Leu-Pro-c(Lys-Tyr-Leu-Cys]-Asp)-Leu-Ile-NH2] (Ac-CPPYLPKYLCDLI-NH2; disulfide 1-10; lactam 7-11), the “Stability in rat plasma” value (37°C, 24 h) is given as “highly stable for at least up to 24 h”. For the same compound, the “RP-HPLC peak area, Input (NT)” value (no plasma treatment) was 161695. The “RP-HPLC peak area, incubation time 24 h” value (rat plasma, 37°C, 24 h) is listed as 163537. Further, for the setting “rat plasma, 37°C, 24 h, read-out: Residual rate, incubation time 24 h”, the remaining at 24 h, 0.476 mM turned out to be 99%. Also, under setting [1], the “RP-HPLC peak area, immediately after mixing” value is listed as 165254 and the “Residual rate, immediately after mixing” value is recorded as 100%.
